According to patent US8367069B2, “Cytotoxic T cell defined EGFR peptide and an optimized derivative peptide” (University of Pittsburgh—of the Commonwealth System of …, priority 2008, dated 2013):

Legend:
[1] = system: PCI-30; assay: IFN-γ ELISPOT, stimulated CD8+ T cells against PCI-30 head and neck tumor cells; format: cell-based, human; conditions: substance added to CTL plus PCI-30 cells
Description: PBMCs were isolated by density centrifugation on Ficoll-Paque™ PLUS (GE Healthcare Bio-Science AB; SE-751 84 Uppsala) and used to prepare mature DCs using methods described in the art. PBMCs were resuspended at 5×10^7/ml in AIM-V medium (Invitrogen) and were incubated for 90 min in 75-cm^2 tissue culture flasks or six-well plates (37° C.; 5% CO2). Non-adherent (T cell-enriched) cells were gently washed out with HBSS and subsequently frozen. The plastic adherent cells were cultured in AIM-V medium supplemented with 1000 units/ml rhGM-CSF and 1000 units/ml rhIL-4. […] The stimulated CD8^+ T cells were analyzed for specificity in IFN-γ ELISPOT and ^51Cr release assays at day 21 and then every 7 days thereafter.
After incubation at 37° C. in 5% CO2 for 40 hours (IFN-γ ELISPOT assays), cells were removed by washings with PBS-0.05% Tween 20 (PBS-T). Captured cytokine was detected at sites of its secretion by incubation for 4 hours with biotinylated mAb anti-hIFN-γ (7-B6-1; Mabtech) at 2 μg/ml in PBS-0.5% BSA. […] Spot numbers and spot sizes were automatically determined with the use of computer-assisted video image analysis.

[2] = system: T2 cells; assay: IFN-γ ELISPOT, CTL recognition of polypeptide pulsed T2 cells; format: cell-based, human; conditions: T2 cells pulsed with the polypeptide; 10 μg/ml at 37° C.
Description: In vitro stimulation (IVS) was performed using EGFR853-861 (i.e., SEQ ID NO: 1, wherein the residue at position 2 is threonine) or EGFR853-861L (i.e., SEQ ID NO: 1, wherein the residue at position 2 is leucine) to induce cytotoxic T lymphocytes (CTL) using CD8+PBMC from five HLA-A*0201^+ healthy donors and one head and neck squamous cell carcinoma (SCCHN) patient. The resulting EGFR-specific CTL were tested for EGFR853-861 specificity and HLA class I antigen restriction using polypeptide pulsed T2 cells. CTL generated against EGFR853-861 polypeptide recognized T2 cells pulsed with either EGFR853-861 or EGFR853-861L polypeptide, but not T2 cells alone or T2 cells incubated with the HIV Pol476-484 polypeptide (10 μg/ml at 37° C.) (see FIGS. 6A and 6B). […]
PBMCs were isolated by density centrifugation on Ficoll-Paque™ PLUS (GE Healthcare Bio-Science AB; SE-751 84 Uppsala) and used to prepare mature DCs using methods described in the art. […] The stimulated CD8^+ T cells were analyzed for specificity in IFN-γ ELISPOT and ^51Cr release assays at day 21 and then every 7 days thereafter.
The recognition of APCs pulsed with polypeptide (EGFR853-861 or EGFR853-861L) and head and neck tumor cells was assessed by ELISPOT assays specific for hu-IFN-γ. […]

[3] = molecular target: HLA-A*0201 (Homo sapiens, UniProt P04439, D140Y/D185E/D98H/E176V/E277Q/G131W/G231S/I119V/I121R/I166T/I218V/L300P/L318F/N151K/N90K/P208A/P217A/Q86G/Q94H/R138H/R169H/T345S); conditions: cited from earlier work
[4] = system: EGFR family; assay: Cross-reactivity of polypeptide-derived CTL; format: cell-based, human

Substance: panitumumab
- change in IFN-γ spots on addition to CTLs (stimulated with EGFR853-861) and PCI-30 cells [1]: increased

Substance: HIV Pol476-484: negative control peptide (AGADRQGTV; UniProt P04585 476-484, looked up, fragment)
- recognition of polypeptide pulsed T2 cells by CTL generated against EGFR853-861 [2]: not

Substance: ITDFGLARL [HER2861-869]
- HLA-A*0201 binding [3]: binds
- cross-reactivity of CTL derived from the polypeptide [4]: demonstrated cross-reactivity
